Source: USRE38257E1, “Piperdine derivatives and hypotensives containing the same” (Ajinomoto Co., Inc., priority 1988, dated 2003)

Tested on: male spontaneously hypertensive rats
Test: Decrease in systolic blood pressure in spontaneously hypertensive rats after intravenous bolus injection, indirect (tail-cuff) method
Type: in vivo, rat
Details: for Decrease in systolic blood pressure (mmHg) time after administration (hour) 0.5: 0.5 hour after administration; for Decrease in systolic blood pressure (mmHg) time after administration (hour) 4: 4 hours after administration
Procedure: As test animals, four male spontaneously hypertensive rats (weight 400 to 440 g) that were sufficiently adapted for feeding and in which hypertension was confirmed were used.
Physiological saline aqueous solution containing 2.5% Nicolle and 2.5% ethanol of sample was intravenously administered by bolus injection at a dose of 1 ml per 1 kg of body weight. Systolic blood pressure after administration was measured by the indirect (tail-cuff) method.

## Cl.Oc1cccc(C=CCN2CCC(=C3c4ccccc4C=Cc4ccccc43)CC2)c1 [Example 367, 4-(5H-Dibenzo[a,d]cyclohepten-5-ylidene)-1-(3-hydroxycinnamyl)piperidine hydrochloride]
Dose 10 mg/kg i.v. bolus
  Decrease in systolic blood pressure (mmHg) time after administration (hour) 0.5: −98 mmHg
  Decrease in systolic blood pressure (mmHg) time after administration (hour) 4: −63 mmHg

## CC(=O)Oc1cccc(C=CCN2CCC(=C3c4ccccc4C=Cc4ccccc43)CC2)c1.Cl [Example 368, 1-(3-Acetoxycinnamyl)-4-(5H-Dibenzo[a,d]cyclohepten-5-ylidene)piperidine hydrochloride]
Dose 3 mg/kg i.v. bolus
  Decrease in systolic blood pressure (mmHg) time after administration (hour) 0.5: −110 mmHg
  Decrease in systolic blood pressure (mmHg) time after administration (hour) 4: −68 mmHg

## COCC(=O)Oc1cccc(C=CCN2CCC(=C3c4ccccc4C=Cc4ccccc43)CC2)c1.Cl [Example 369, 4-(5H-Dibenzo[a,d]cyclohepten-5-ylidene)-1-(3-(2-methoxyacetoxy)cinnamyl)piperidine hydrochloride]
Dose 10 mg/kg i.v. bolus
  Decrease in systolic blood pressure (mmHg) time after administration (hour) 0.5: −101 mmHg
  Decrease in systolic blood pressure (mmHg) time after administration (hour) 4: −83 mmHg

## CCC(=O)Nc1ccc(C=CCN2CCC(=C3c4ccccc4C=Cc4ccccc43)CC2)cc1.Cl [Example 370, 4-(5H-Dibenzo[a,d]cyclohepten-5-ylidene)-1-(4-propanoylaminocinnamyl)piperidine hydrochloride]
Dose 10 mg/kg i.v. bolus
  Decrease in systolic blood pressure (mmHg) time after administration (hour) 0.5: −99 mmHg
  Decrease in systolic blood pressure (mmHg) time after administration (hour) 4: −69 mmHg

## COC(=O)c1ccccc1C=CCN1CCC(=C2c3ccccc3C=Cc3ccccc32)CC1.Cl [Example 374, 4-(5H-Dibenzo[a,d]cyclohepten-5-ylidene)-1-(2-methoxycarbonylcinnamyl)piperidine hydrochloride]
Dose 3 mg/kg i.v. bolus
  Decrease in systolic blood pressure (mmHg) time after administration (hour) 0.5: −119 mmHg
  Decrease in systolic blood pressure (mmHg) time after administration (hour) 4: 11 mmHg

## COC(=O)c1cccc(C=CCN2CCC(=C3c4ccccc4C=Cc4ccccc43)CC2)c1.Cl [Example 375, 4-(5H-Dibenzo[a,d]cyclohepten-5-ylidene)-1-(3-methoxycarbonylcinnamyl)piperidine hydrochloride]
Dose 1 mg/kg i.v. bolus
  Decrease in systolic blood pressure (mmHg) time after administration (hour) 0.5: −126 mmHg
  Decrease in systolic blood pressure (mmHg) time after administration (hour) 4: −70 mmHg

## COC(=O)c1ccc(C=CCN2CCC(=C3c4ccccc4C=Cc4ccccc43)CC2)cc1.Cl [Example 376, 4-(5H-Dibenzo[a,d]cyclohepten-5-ylidene)-1-(4-methoxycarbonylcinnamyl)piperidine hydrochloride]
Dose 3 mg/kg i.v. bolus
  Decrease in systolic blood pressure (mmHg) time after administration (hour) 0.5: −106 mmHg
  Decrease in systolic blood pressure (mmHg) time after administration (hour) 4: −77 mmHg

## COc1cccc(C=CCN2CCC(=C3c4ccccc4C=Cc4ccccc43)CC2)c1[N+](=O)[O-].Cl [Example 377]
Dose 1 mg/kg i.v. bolus
  Decrease in systolic blood pressure (mmHg) time after administration (hour) 0.5: −151 mmHg
  Decrease in systolic blood pressure (mmHg) time after administration (hour) 4: −73 mmHg

## COC(=O)Nc1ccc(C=CCN2CCC(=C3c4ccccc4C=Cc4ccccc43)CC2)cc1.Cl [Example 378, 4-(5H-Dibenzo[a,d]cyclohepten-5-ylidene)-1-(4-methoxycarbonylaminocinnamyl)piperidine hydrochloride]
Dose 1 mg/kg i.v. bolus
  Decrease in systolic blood pressure (mmHg) time after administration (hour) 0.5: −106 mmHg
  Decrease in systolic blood pressure (mmHg) time after administration (hour) 4: −90 mmHg

## CC(C)(C)C(=O)Nc1ccc(C=CCN2CCC(=C3c4ccccc4C=Cc4ccccc43)CC2)cc1.Cl [Example 379]
Dose 1 mg/kg i.v. bolus
  Decrease in systolic blood pressure (mmHg) time after administration (hour) 0.5: −118 mmHg
  Decrease in systolic blood pressure (mmHg) time after administration (hour) 4: −59 mmHg

## Cl.O=C(Nc1ccc(C=CCN2CCC(=C3c4ccccc4C=Cc4ccccc43)CC2)cc1)C(F)(F)F [Example 380, 4-(5H-Dibenzo[a,d]cyclohepten-5-ylidene)-1-(4-trifluoroacetylaminocinnamyl)piperidine hydrochloride]
Dose 0.3 mg/kg i.v. bolus
  Decrease in systolic blood pressure (mmHg) time after administration (hour) 0.5: −141 mmHg

## CCCC(=O)Nc1ccc(C=CCN2CCC(=C3c4ccccc4C=Cc4ccccc43)CC2)cc1.Cl [Example 381, 1-(4-Butanoylaminocinnamyl)-4-(5H-Dibenzo[a,d]cyclohepten-5-ylidene)piperidine hydrochloride]
Dose 3 mg/kg i.v. bolus
  Decrease in systolic blood pressure (mmHg) time after administration (hour) 0.5: −136 mmHg

## CCOC(=O)c1ccc(C=CCN2CCC(=C3c4ccccc4C=Cc4ccccc43)CC2)cc1.Cl [Example 382, 4-(5H-Dibenzo[a,d]cyclohepten-5-ylidene)-1-(4-ethoxycarbonylcinnamyl)piperidine hydrochloride]
Dose 3 mg/kg i.v. bolus
  Decrease in systolic blood pressure (mmHg) time after administration (hour) 0.5: −129 mmHg
  Decrease in systolic blood pressure (mmHg) time after administration (hour) 4: −74 mmHg

## COCC(=O)Oc1ccc(C=CCN2CCC(=C3c4ccccc4C=Cc4ccccc43)CC2)cc1.Cl [Example 383, 4-(5H-Dibenzo[a,d]cyclohepten-5-ylidene)-1-(4-(2-methoxyacetoxy)cinnamyl)piperidine hydrochloride]
Dose 3 mg/kg i.v. bolus
  Decrease in systolic blood pressure (mmHg) time after administration (hour) 0.5: −112 mmHg
  Decrease in systolic blood pressure (mmHg) time after administration (hour) 4: −86 mmHg

## C1=Cc2ccccc2C(=C2CCN(Cc3cc4ccccc4[nH]3)CC2)c2ccccc21.Cl [Example 385, 4-(5H-Dibenzo[a,d]cyclohepten-5-ylidene)-1-(2-indolylmethyl)piperidine hydrochloride]
Dose 10 mg/kg i.v. bolus
  Decrease in systolic blood pressure (mmHg) time after administration (hour) 0.5: −123 mmHg
  Decrease in systolic blood pressure (mmHg) time after administration (hour) 4: −96 mmHg

## Cl.NS(=O)(=O)c1ccc(C=CCN2CCC(=C3c4ccccc4C=Cc4ccccc43)CC2)cc1 [Example 386, 1-(4-Aminosulfonylcinnamyl)-4-(5H-Dibenzo[a,d]cyclohepten-5-ylidene)piperidine hydrochloride]
Dose 10 mg/kg i.v. bolus
  Decrease in systolic blood pressure (mmHg) time after administration (hour) 0.5: −83 mmHg
  Decrease in systolic blood pressure (mmHg) time after administration (hour) 4: −96 mmHg

## COc1cc(C=CCN2CCC(=C3c4ccccc4C=Cc4ccccc43)CC2)ccc1[N+](=O)[O-].Cl [Example 387, 4-(5H-Dibenzo[a,d]cyclohepten-5-ylidene)-1-(3-methoxy-4-nitrocinnamyl)piperidine hydrochloride]
Dose 10 mg/kg i.v. bolus
  Decrease in systolic blood pressure (mmHg) time after administration (hour) 0.5: −112 mmHg
  Decrease in systolic blood pressure (mmHg) time after administration (hour) 4: −50 mmHg

## N-(2-(5H-Dibenzo[a,d]cyclohepten-5-ylidene)-1-piperidinyl)ethyl isonicotinamide hydrochloride [Example 244]
Dose 10 mg/kg i.v. bolus
  Decrease in systolic blood pressure (mmHg) time after administration (hour) 0.5: −19 mmHg
  Decrease in systolic blood pressure (mmHg) time after administration (hour) 4: 4 mmHg
